Laboratory results as given in patent US20240208988A1, “Alstonine Derivatives and Salts Thereof” (priority 2021, published 2024).
Entries after “also recorded” stand apart in the source; their conditions may differ. Counter-ions that a name gives are not always drawn.

Key:
[1] = test system: Zebrafish (Danio rerio); experiment: Open tank test in zebrafish exposed to MK-801; format: in vivo; conditions: for total distance in the open tank test: FIG. 7; for absolute turn angle in the open tank test: FIG. 8; for number of clockwise rotations in the open tank test: FIG. 9; for time spent immobile in the open tank test: for pretreatments: effect on the MK-801-induced increase, FIG. 10; for Open Tank Test: Absolute turn angle / Open Tank Test: Time immobile / Open Tank Test: Clockwise rotations / Open Tank Test: Total distance: immediately after social interaction test, 10 min; for Open Tank Test: Clockwise rotations / Open Tank Test: Total distance: bracket = kind of effect and concentration (mg/L)
Procedure: (§1) Here, the ability of alstonine salts to reverse schizophrenia-like symptoms produced by MK-801 in zebrafish was evaluated. The atypical antipsychotic olanzapine was used as a comparison.
(§2) Experiments were performed using male and female (50:50 ratio) short-fin wild-type zebrafish (4-month-old, 300-500 mg). Adult animals were obtained from a local commercial supplier (Delphis, RS, Brazil). The animals were maintained at Instituto de Ciências Básicas de Saúde in a light/dark cycle of 14/10 h with lights on at 7:00 a.m. for at least two weeks before tests. Fish were kept in 40-L (30×46×33 cm) unenriched glass tanks with non-chlorinated water at a maximum density of five animals per liter. Tank water satisfied the controlled conditions required for zebrafish (26±2° C.; pH 7.0±0.3; dissolved oxygen at 7.0±0.4 mg/L; total ammonia at <0.01 mg/L; total hardness at 5.8 mg/L; alkalinity at 22 mg/L CaCO3; conductivity of 1,500-1,600 μS/cm) and was constantly filtered by mechanical, biological, and chemical filtration systems. Food was provided twice a day as commercial flake food (Poytara®, SP, Brazil) plus brine shrimp (Artemia salina). The sex of the animals was confirmed after euthanasia by dissecting and analyzing the gonads. For all experiments, no sex effects were observed, so data was pooled together. Animals were euthanized by hypothermic shock according to the AVMA Guidelines for the Euthanasia of Animals (Leary and Johnson, 2020).
(§3) Olanzapine and MK-801 (dizocilpine) were purchased from Sigma-Aldrich (St. Louis, MO, USA). Alstonine hydrochloride and alstonine hydrobromide were prepared as described herein. MK-801 and either olanzapine or alstonine salt were dissolved in distilled water; alstonine salt stock solutions were sonicated in an ultrasonic bath. MK-801 solutions were freshly prepared, while alstonine salt stock solutions were kept refrigerated for up to five days. Exposure solutions were renovated halfway through the experiment, with a maximum of four fish exposed to the same solution.
(§4) Different sets of animals were used for each experiment, totaling 240 zebrafish in the study (plus 80 zebrafish serving as stimulus animals). Animals were individually exposed to water, olanzapine, or alstonine salt solutions at 2.5, 5, or 10 mg/L in 500-mL beakers containing 200-mL solution for 20 min. These concentrations were extrapolated from mice studies. Fish were then transferred to another beaker containing either water or MK-801 at 5 μM and remained there for another 20 minutes.
The protocol for the open tank test followed the method described by Benvenutti et al. (2021) Journal of Neuroscience Research 00: 1-16. Immediately after the social interaction test, animals were placed in the center of the open tank arena and recorded for 10 min. The apparatus consisted of a white circular arena (24 cm in diameter and 8 cm in height, 2 cm water level). The apparatus format and the acquisition of videos from the top view allows the evaluation of locomotor parameters related to stereotypic behavior (circular movements and absolute turn angle). The water was changed between every animal. The following outcomes were automatically scored using ANY-Maze software (Stoelting Co., Wood Dale, IL, USA): total distance traveled, absolute turn angle, number of clockwise rotations, and immobility time.
GraphPad Prism 8 (version 8.4.3) for macOS was used to run the statistical analyses and plot the results. No animals were excluded, except for two data points in the open tank test due to a failure in video acquisition. Data were analyzed by two-way ANOVA, with alstonine salt or olanzapine pretreatment (Drug_1) and MK-801 treatment (Drug_2) as the main factors. Bonferroni post hoc test was applied as appropriate. The significant level was set at p<0.05. Data were expressed as mean standard deviation.

[2] = test system: Zebrafish (Danio rerio); experiment: Social interaction test in zebrafish exposed to MK-801; format: in vivo; conditions: for Social Interaction Test: Time immobile: 20 min drug pre-exposure, then 20 min MK-801 5 μM or water; for total distance traveled in the social interaction test / time spent in the interaction zone (social interaction), effect of the substance itself: main effect; for total distance traveled in the social interaction test: FIG. 3; for time spent in the interaction zone (social interaction), effect of the substance itself: two-way ANOVA, Bonferroni post hoc; for number of crossings in the social interaction test: main or interaction effect with MK-801, FIG. 4; for pre-exposure concentration at which MK-801 increased the number of crossings (Bonferroni post hoc): social interaction test, FIG. 4
Procedure: as §1, §2, §3, §4
The protocol for the social interaction test in zebrafish followed the method described by Benvenutti et al. (2021) Journal of Neuroscience Research 00: 1-16. After exposure, animals were placed for 7 min in a tank (30×10×15 cm) flanked by two identical tanks (15×10×13 cm) either empty (neutral stimulus) or containing 10 unknown zebrafish (social stimulus). All three tanks were filled with water in standard conditions at a level of 10 cm. The position of the social stimulus (right or left) was counterbalanced throughout the tests. The water in the test tanks was changed between every animal. To assess social behavior, the test apparatus was virtually divided into three vertical zones (interaction, middle, and neutral). Animals were habituated to the apparatus for 2 min and then analyzed for the last 5 min. Videos were recorded from the front view and time spent in the interaction zone was quantified as a proxy for social interaction. Additionally, total distance traveled, number of crossings between the vertical zones of the tank and immobility time were quantified as secondary locomotor parameters. All outcomes were automatically scored using ANY-Maze software (Stoelting Co., Wood Dale, IL, USA).
GraphPad Prism 8 (version 8.4.3) for macOS was used to run the statistical analyses and plot the results. No animals were excluded, except for two data points in the open tank test due to a failure in video acquisition. […]

[3] = test system: rodents; conditions: acute administration; literature data; cited from earlier work
[4] = test system: dopamine (DA) uptake; conditions: mouse striatal synaptosomes (Linck et al. 2015); cited from earlier work
[5] = test system: D1, D2, and 5-HT2A receptors; conditions: cortex membranes; preliminary binding studies (Costa-Campos et al., 1998); cited from earlier work
[6] = test system: mice; conditions: cited from earlier work

| SMILES | total distance in the open tank test [1] | absolute turn angle in the open tank test [1] | number of clockwise rotations in the open tank test [1] | time spent immobile in the open tank test [1] | Open Tank Test: Absolute turn angle [1] | Open Tank Test: Time immobile [1] | Open Tank Test: Clockwise rotations [1] | Open Tank Test: Total distance [1] | Social Interaction Test: Time immobile [2] | total distance traveled in the social interaction test [2] | number of crossings in the social interaction test [2] | pre-exposure concentration at which MK-801 increased the number of crossings (Bonferroni post hoc) [2] | also measured |
| --- | --- | --- | --- | --- | --- | --- | --- | --- | --- | --- | --- | --- | --- |
| C[C@]12N[C@H](Cc3ccccc31)c1ccccc12 [MK-801, dizocilpine, reference compound] | decreased the total distance relative to controls | decreased the absolute turn angle relative to controls | decreased the number of clockwise rotations relative to controls | increased the time spent immobile | ↓ | ↑ | ↓ | ↓ | = | increased the total distance traveled relative to controls | had no effect on the number of crossings |  | Social Interaction Test: Crossings ([2]; Ctrl vs. MK within pretreatment level, bracket = concentration (mg/L)): =; time spent immobile in the social interaction test ([2]; FIG. 5): tended to decrease the time spent immobile; time spent in the interaction zone (social interaction), effect of the substance itself ([2]; FIG. 2): decreased social preference |
| CCN1CCCC1CNC(=O)c1cc(S(N)(=O)=O)ccc1OC (stereo not shown) [Sulpiride] |  |  |  |  |  |  |  |  |  |  |  |  | prevention of social interaction deficits caused by MK-801 [3]: acutely prevents the deficits caused by MK-801 |
| COC(=O)C1=CO[C@@H](C)[C@H]2C[n+]3ccc4c([nH]c5ccccc54)c3C[C@H]12.[Br-] [alstonine hydrobromide] | did not have an effect | no main effects for Drug_1 or interaction effects were observed | did not have a main effect or an interaction effect | did not have an effect | N.E.^1 | N.E.^1 | N.E.^1 | N.E.^1 |  | had no such effect | significant interaction | 10 mg/L | time spent immobile in the social interaction test ([2]; FIG. 5, hydrobromide): significant interaction; time spent immobile in the social interaction test ([2]; FIG. 5, listed as alstonine bromide, hydrobromide): reduced the effects of MK-801 at the highest concentrations tested; time spent in the interaction zone (social interaction), effect of the substance itself ([2]; FIG. 2, listed as alstonine bromide, hydrobromide): none of the concentrations decreased social isolation; also recorded: did not; prevention of the MK-801-induced decrease of social interaction time ([2]; pretreatment 20 min before MK-801 5 μM, FIG. 2): did not prevent the effects of MK-801 |
| COC(=O)C1=CO[C@@H](C)[C@@H]2Cn3ccc4c5ccccc5nc-4c3C[C@H]12 [alstonine hydrochloride] | did not have an effect | no main effects for Drug_1 or interaction effects were observed | did not have a main effect or an interaction effect | did not have an effect | N.E.^1 | N.E.^1 | N.E.^1 | N.E.^1 | N.E.^1 | had no such effect | significant interaction | 5 mg/L | time spent in the interaction zone (social interaction), effect of the substance itself ([2]; FIG. 2, hydrochloride): animals exposed to 5 and 10 mg/L alstonine hydrochloride spent less time in the interaction zone as compared to controls; also recorded: decreased the interaction time |
| COC(=O)C1=CO[C@@H](C)[C@@H]2Cn3ccc4c5ccccc5nc-4c3C[C@H]12 [alstonine] |  |  |  |  |  |  |  |  |  |  |  |  | effect on DA uptake [4]: increasing DA uptake; effect on [3H]SCH23390 or [3H]Spiperone binding [5]: does not affect; antipsychotic profile in mice models ([6]; 0.5-1.0 mg/kg ip): antipsychotic properties; time to significant effects after intraperitoneal administration ([6]; mice, ip): ≤ 30 min |
| Cc1cc2c(s1)Nc1ccccc1N=C2N1CCN(C)CC1 [olanzapine, reference compound] |  |  |  |  | N.E.^1 |  |  |  | N.E.^1 |  |  |  |  |
